Like-named read-outs stand apart in the source and are kept apart here.
How the values were obtained:
human Factor XIa = target: T1, human Factor XIa (Homo sapiens, UniProt P03951); assay: Factor XIa Assay; assay type: biochemical; conditions: read-out: F11a IC50
T1 construct: purified human Factor XIa; purchased Sekisui Diagnostics
Protocol: The effectiveness of a compound of the present invention as an inhibitor of Coagulation Factor XIa can be determined using a relevant purified serine protease, and an appropriate synthetic substrate. The rate of hydrolysis of the chromogenic or fluorogenic substrate by the relevant serine protease was measured both in the absence and presence of compounds of the present invention. Assays were conducted at room temperature or at 37° C. […] A decrease in the rate of fluorescence change in the presence of inhibitor is indicative of enzyme inhibition. Such methods are known to one skilled in the art. […]
Factor XIa determinations were made in 50 mM HEPES buffer at pH 7.4 containing 150 mM NaCl, 5 mM CaCl2, and 0.1% PEG 8000 (polyethylene glycol; JT Baker or Fisher Scientific). Determinations were made using purified human Factor XIa at a final concentration of 40 pM (Sekisui Diagnostics) and the synthetic substrate, Z-Gly-Pro-Arg-AFC, TFA salt (Sigma #C0980) at a concentration of 100 μM.
Times required to achieve equilibration between enzyme and inhibitor were determined in control experiments. Initial velocities of product formation in the absence (Vo) or presence of inhibitor (Vi) were measured. Assuming competitive inhibition, and that unity is negligible compared Km/[S], [I]/e, and [I]/e (where [S], [I], and e respectively represent the total concentrations, of substrate, inhibitor and enzyme), the equilibrium constant (Ki) for dissociation of the inhibitor from the enzyme can be obtained from the dependence of Vo/Vi on [I] shown in the following equation.

Human plasma kallikrein = target: T2, Human plasma kallikrein (Homo sapiens, UniProt P03952); assay: Kallikrein Assay; assay type: biochemical; conditions: Plasma Kallekrein IC50, read-out: PK IC50
T2 construct: yields a heavy chain (371 amino acids) and a light chain (248 amino acids); purchased Enzyme Research Laboratories
T2 sequence (P03952 391-638 limits assumed): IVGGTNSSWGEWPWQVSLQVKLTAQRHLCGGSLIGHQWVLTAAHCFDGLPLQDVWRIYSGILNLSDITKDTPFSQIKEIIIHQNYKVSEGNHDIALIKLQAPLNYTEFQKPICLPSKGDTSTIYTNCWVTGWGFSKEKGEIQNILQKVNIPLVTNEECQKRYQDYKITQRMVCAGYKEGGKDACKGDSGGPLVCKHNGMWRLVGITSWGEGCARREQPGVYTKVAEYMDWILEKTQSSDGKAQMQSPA
T2 sequence (P03952 20-390 partner limits assumed): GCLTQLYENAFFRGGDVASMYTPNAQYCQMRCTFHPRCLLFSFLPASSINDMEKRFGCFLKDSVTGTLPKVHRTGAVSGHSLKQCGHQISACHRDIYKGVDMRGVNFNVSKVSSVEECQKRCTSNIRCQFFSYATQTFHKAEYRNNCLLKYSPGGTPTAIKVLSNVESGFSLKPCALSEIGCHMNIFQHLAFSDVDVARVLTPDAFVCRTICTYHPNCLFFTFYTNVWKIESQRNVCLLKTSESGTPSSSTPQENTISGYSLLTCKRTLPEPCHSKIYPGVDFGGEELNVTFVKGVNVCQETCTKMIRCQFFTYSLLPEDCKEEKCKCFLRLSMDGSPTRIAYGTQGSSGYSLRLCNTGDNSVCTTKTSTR
Protocol: The effectiveness of a compound of the present invention as an inhibitor of Kallikrein can be determined using a relevant purified serine protease, and an appropriate synthetic substrate. The rate of hydrolysis of the chromogenic or fluorogenic substrate by the relevant serine protease was measured both in the absence and presence of compounds of the present invention. Assays were conducted at room temperature or at 37° C. […] A decrease in the rate of fluorescence change in the presence of inhibitor is indicative of enzyme inhibition. Such methods are known to one skilled in the art. The results of this assay are expressed as the inhibitory constant, Ki.
Kallikrein determinations were made in 50 mM HEPES buffer at pH 7.4 containing 150 mM NaCl, 5 mM CaCl2, and 0.1% PEG 8000 (polyethylene glycol; Fisher Scientific). Determinations were made using purified Human plasma kallikrein at a final concentration of 0.5 nM (Enzyme Research Laboratories) and the synthetic substrate, Acetyl-K—P—R-AFC (Sigma # C6608) at a concentration of […].
Times required to achieve equilibration between enzyme and inhibitor were determined in control experiments. The reactions were performed under linear progress curve conditions and fluorescence increase measured at 405 Ex/510 Em nm. […] IC50 was determined by inflection point from a four parameter logistic curve fit. Ki was calculated using the Cheng Prusoff equation, Ki=IC50/(1+([S]/Km)).

T1 sequence (P03951 388-625 limits assumed): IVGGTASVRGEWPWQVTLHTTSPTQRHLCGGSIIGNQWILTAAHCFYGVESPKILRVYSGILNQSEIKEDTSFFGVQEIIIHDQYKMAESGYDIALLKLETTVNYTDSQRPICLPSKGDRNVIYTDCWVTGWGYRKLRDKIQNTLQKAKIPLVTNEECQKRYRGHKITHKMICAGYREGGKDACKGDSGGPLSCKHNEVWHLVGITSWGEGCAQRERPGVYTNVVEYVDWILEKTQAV
T1 sequence (P03951 19-387 partner limits assumed): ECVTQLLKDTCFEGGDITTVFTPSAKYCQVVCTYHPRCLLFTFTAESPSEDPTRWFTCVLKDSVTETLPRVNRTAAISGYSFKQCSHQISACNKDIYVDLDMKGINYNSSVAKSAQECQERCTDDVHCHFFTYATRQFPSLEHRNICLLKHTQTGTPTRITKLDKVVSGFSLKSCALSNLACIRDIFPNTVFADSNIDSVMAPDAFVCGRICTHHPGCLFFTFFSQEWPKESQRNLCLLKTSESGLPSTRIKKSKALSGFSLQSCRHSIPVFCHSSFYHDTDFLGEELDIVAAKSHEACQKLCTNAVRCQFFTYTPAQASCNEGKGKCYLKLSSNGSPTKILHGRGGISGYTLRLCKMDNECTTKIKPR

Row | SMILES | IC50 (human Factor XIa; Examples 1-19 table) [nM] | IC50 (Human plasma kallikrein; Examples 1-19 table) [nM] | IC50 (human Factor XIa; Examples 20-28 table) [nM] | IC50 (Human plasma kallikrein; Examples 20-28 table) [nM]
1 | O=C(O)c1ccc2[nH]c([C@H](Cc3ccc(F)cc3)c3ccc(-c4c(F)ccc(Cl)c4F)c[n+]3[O-])nc2c1 [Example 12] | 160 | – | – | –
2 | O=C(O)c1ccc2[nH]c(C(Cc3ccccc3)c3ccc(-c4c(F)ccc(Cl)c4F)c[n+]3[O-])nc2c1 (stereo in doubt) [Example 2, (S)-2-(1-(5-Carboxy-1H-benzo[d]imidazol-2-yl)-2-phenylethyl)-5-(3-chloro-2,6-difluorophenyl)pyridine 1-oxide] | 46.2 | 182 | – | –
3 | O=C(O)c1ccc2[nH]c([C@@H](Cc3ccc(F)cc3)c3ccc(-c4c(F)ccc(Cl)c4F)c[n+]3[O-])nc2c1 [Example 11] | 146 | – | – | –
4 | [O-][n+]1cc(-c2c(-n3cnnn3)ccc(Cl)c2F)ccc1[C@@H](Cc1ccccc1)c1nc2cc(F)ccc2[nH]1 [Example 20, 2-[(1R)-1-{5-[3-chloro-2-fluoro-6-(1H-tetrazol-1-yl)phenyl]-1-oxidopyridin-2-yl}-2-phenylethyl]-5-fluoro-1H-benzimidazole] | – | – | 1.82 | 64.8
5 | O=C(CC(c1nc2ccc(F)cc2[nH]1)c1ccc(-c2cc(Cl)ccc2-n2cnnn2)c[n+]1[O-])N1CCC1 (single isomer, unassigned) [Example 27] | – | – | 79.1 | –
6 | O=C(O)c1ccc2[nH]c(C(Cc3ccccc3)c3ccc(-c4c(F)ccc(Cl)c4F)c[n+]3[O-])nc2c1 (stereo in doubt) [Example 3, (R)-2-(1-(5-Carboxy-1H-benzo[d]imidazol-2-yl)-2-phenylethyl)-5-(3-chloro-2,6-difluorophenyl)pyridine 1-oxide] | 138 | 182 | – | –
7 | O=C(O)c1ccc2[nH]c(C(Cc3ccccc3)c3ccc(-c4c(F)ccc(Cl)c4F)c[n+]3[O-])nc2c1 (racemic) [Example 1, 2-(1-(5-Carboxy-1H-benzo[d]imidazol-2-yl)-2-phenylethyl)-5-(3-chloro-2,6-difluorophenyl)pyridine 1-oxide] | 89.2 | 293 | – | –
8 | [O-][n+]1cc(-c2c(F)ccc(Cl)c2F)ccc1C(Cc1ccccc1)c1nc2cc(F)ccc2[nH]1 (racemic) [Example 10] | 1250 | – | – | –
9 | O=C(O)c1ccc2nc(C(CC3CC3)c3ccc(-c4cc(Cl)ccc4-n4cnnn4)c[n+]3[O-])[nH]c2c1 (racemic) [Example 24, 2-(1-(5-carboxy-1H-benzo[d]imidazol-2-yl)-2-cyclopropylethyl)-5-(5-chloro-2-(1H-tetrazol-1-yl)phenyl)pyridine 1-oxide] | – | – | 14.2 | –
10 | N#Cc1ccc2[nH]c(C(Cc3ccccc3)c3ccc(-c4c(F)ccc(Cl)c4F)c[n+]3[O-])nc2c1 (racemic) [Example 13] | 1880 | – | – | –
11 | O=C(CC(c1nc2ccc(F)cc2[nH]1)c1ccc(-c2cc(Cl)ccc2-n2cnnn2)c[n+]1[O-])N1CCC1 (single isomer, unassigned) [Example 28] | – | – | 93.7 | 1810
12 | NC(=O)c1ccc(Cl)cc1-c1ccc([C@@H](Cc2ccccc2)c2nc3cc(F)ccc3[nH]2)[n+]([O-])c1 [Example 22, (R)-5-(2-carbamoyl-5-chlorophenyl)-2-(1-(5-fluoro-1H-benzo[d]imidazol-2-yl)-2-phenylethyl)pyridine 1-oxide] | – | – | 154 | –
13 | [O-][n+]1cc(-c2c(-n3cnnn3)ccc(Cl)c2F)ccc1[C@H](Cc1ccccc1)c1nc2cc(F)ccc2[nH]1 [Example 21, 2-[(1S)-1-{5-[3-chloro-2-fluoro-6-(1H-tetrazol-1-yl)phenyl]-1-oxidopyridin-2-yl}-2-phenylethyl]-5-fluoro-1H-benzimidazole] | – | – | 11.8 | 169
14 | NC(=O)c1ccc(Cl)cc1-c1ccc([C@H](Cc2ccccc2)c2nc3cc(F)ccc3[nH]2)[n+]([O-])c1 [Example 23, (S)-5-(2-carbamoyl-5-chlorophenyl)-2-(1-(5-fluoro-1H-benzo[d]imidazol-2-yl)-2-phenylethyl)pyridine 1-oxide] | – | – | 1000 | –
15 | O=C(O)c1ccc2nc(C(CC(=O)N3CCC3)c3ccc(-c4c(F)ccc(Cl)c4F)c[n+]3[O-])[nH]c2c1 (racemic) [Example 26] | – | – | 7930 | –

The next lines start with the values.

Row | IC50 (human Factor XIa; Examples 1-19 table) [nM] | IC50 (Human plasma kallikrein; Examples 1-19 table) [nM] | IC50 (human Factor XIa; Examples 20-28 table) [nM] | IC50 (Human plasma kallikrein; Examples 20-28 table) [nM] | SMILES
16 | 4.7 | 245 | – | – | [O-][n+]1cc(-c2cc(Cl)ccc2-n2cnnn2)ccc1[C@@H](Cc1ccc(F)cc1)c1nc2cc(F)ccc2[nH]1 [Example 15]
17 | 3.41 | 216 | – | – | O=C(O)c1ccc2[nH]c([C@@H](Cc3ccccc3)c3ccc(-c4cc(Cl)ccc4-n4cnnn4)c[n+]3[O-])nc2c1 [Example 5, (S)-2-(1-(5-Carboxy-1H-benzo[d]imidazol-2-yl)-2-phenylethyl)-5-(5-chloro-2-(1H-tetrazol-1-yl)phenyl)pyridine 1-oxide]
18 | 0.51 | 28.4 | – | – | O=C(O)c1ccc2[nH]c([C@H](Cc3ccccc3)c3ccc(-c4cc(Cl)ccc4-n4cnnn4)c[n+]3[O-])nc2c1 [Example 6, (R)-2-(1-(5-Carboxy-1H-benzo[d]imidazol-2-yl)-2-phenylethyl)-5-(5-chloro-2-(1H-tetrazol-1-yl)phenyl)pyridine 1-oxide]
19 | 1.15 | 186 | – | – | [O-][n+]1cc(-c2cc(Cl)ccc2-n2cnnn2)ccc1C(Cc1ccccc1)c1nc2cc(F)ccc2[nH]1 (racemic) [Example 7, 5-(5-chloro-2-(1H-tetrazol-1-yl)phenyl)-2-(1-(5-fluoro-1H-benzo[d]imidazol-2-yl)-2-phenylethyl)pyridine 1-oxide]
20 | 1.33 | 151 | – | – | N#Cc1ccc2[nH]c(C(Cc3ccccc3)c3ccc(-c4cc(Cl)ccc4-n4cnnn4)c[n+]3[O-])nc2c1 (racemic) [Example 16]
21 | – | – | 54 | 2740 | O=C(O)c1ccc2[nH]c(C(Cc3ccccc3)c3ccc(-c4cc(Cl)ccc4C(=O)O)c[n+]3[O-])nc2c1 (racemic) [Example 25]
22 | 1.33 | 124 | – | – | [O-][n+]1cc(-c2cc(Cl)ccc2-n2cnnn2)ccc1C(Cc1ccccc1)c1nc2cc(F)ccc2[nH]1 (stereo in doubt) [Example 8, (S)-5-(5-chloro-2-(1H-tetrazol-1-yl)phenyl)-2-(1-(5-fluoro-1H-benzo[d]imidazol-2-yl)-2-phenylethyl)pyridine 1-oxide]
23 | 3.28 | 295 | – | – | [O-][n+]1cc(-c2cc(Cl)ccc2-n2cnnn2)ccc1C(Cc1ccccc1)c1nc2cc(F)ccc2[nH]1 (stereo in doubt) [Example 9, (R)-5-(5-chloro-2-(1H-tetrazol-1-yl)phenyl)-2-(1-(5-fluoro-1H-benzo[d]imidazol-2-yl)-2-phenylethyl)pyridine 1-oxide]
24 | 38.2 | 335 | – | – | N#Cc1ccc(Cl)cc1-c1ccc(C(Cc2ccccc2)c2nc3cc(C(=O)O)ccc3[nH]2)[n+]([O-])c1 (racemic) [Example 17]
25 | 0.45 | 52.7 | – | – | O=C(O)c1ccc2[nH]c(C(Cc3ccccc3)c3ccc(-c4cc(Cl)ccc4-n4cnnn4)c[n+]3[O-])nc2c1 (racemic) [Example 4, 2-(1-(5-Carboxy-1H-benzo[d]imidazol-2-yl)-2-phenylethyl)-5-(5-chloro-2-(1H-tetrazol-1-yl)phenyl)pyridine 1-oxide]
26 | 89.7 | 809 | – | – | [O-][n+]1cc(-c2cc(Cl)ccc2-n2cnnn2)ccc1[C@H](Cc1ccc(F)cc1)c1nc2cc(F)ccc2[nH]1 [Example 14]

Source: patent US10011585B2, “Factor XIa inhibitors” (Merck Sharp & Dohme Corp., priority 2014, dated 2018)
